One experiment deals with T1, KRas G12D mutant (Homo sapiens, UniProt P01116, G12D).
T1 construct: fused on or other part: His tag, used for capture on nickel-coated plates
Nature of the experiment: Ras GTP binding domain inhibition assay (Cy3-GTP/Cy5-GTP competition). The conditions noted are these: at 20 μM, with SOS; read-out: KRas G12D mutant + SOS: % inh. Put shortly:
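Compounds tested at 20 μM or in serial dilution for IC50 against nickel-captured His-tagged GTPase, 3 hours at room temperature, with or without His-Sos GEF added for last hour. Fluorescent GTP then added at 100 nM for 45 minutes; wells washed, bound label measured by fluorescence.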
For the compound `O=C(NC1CCCC1)c1nc(-c2ccccn2)nc(O)c1O` [drawing 947], the inhibition at 20 µM was 1 to 25%.
Same read-out and setting: next, `COc1c(O)nc(-c2ccccn2)nc1Oc1ccccc1` [drawing 948]: 26 to 50%; `COCCc1ccc(Oc2nc(-c3ccccn3)nc(O)c2OC)cc1` [drawing 949]: 26 to 50%; `COc1ccc(Oc2nc(-c3ccccn3)nc(O)c2OC)cc1` [drawing 950]: 26 to 50%.
As for `Oc1nc(-c2cn3ccccc3n2)nc2c(-c3ccccn3)csc12` [drawing 951], the inhibition at 20 µM fell in the range of 1 to 25%.
On the same count and under the same terms, to `COC1CCN(c2nc(-c3nccn3C)nc3sc(-c4ccccc4CO)c(-c4ccccc4)c23)C1` (stereo not drawn) [drawing 952] belongs 51 to 75%; to `COC1CCN(c2nc(-c3nccn3C)nc3sc(-c4ccc(N)nc4C)c(-c4ccccc4)c23)C1` (stereo not drawn) [drawing 953], 1 to 25%.
Same read-out and setting: to `COC1CCN(c2nc(-c3nccn3C)nc3sc(-c4ccc(CO)cc4)c(-c4ccccc4)c23)C1` (stereo not drawn) [drawing 954] belongs 51 to 75%; to `COC1CCN(c2nc(-c3nccn3C)nc3sc(-c4ccncc4C)c(-c4ccccc4)c23)C1` (stereo not drawn) [drawing 955], 26 to 50%; to `O=C(NCc1ccccc1)c1nc(-c2ccccn2)nc(O)c1O` [drawing 956], 51 to 75%.
Same read-out and setting: next, `COC1CCN(c2nc(-c3nccn3C)nc3sc(Br)c(-c4ccccc4)c23)C1` (stereo not drawn) [drawing 957]: 51 to 75%; `COC1CCN(c2nc(-c3nccn3C)nc3sc(-c4ccnc(N(C)C)c4)c(-c4ccccc4)c23)C1` (stereo not drawn) [drawing 958]: 51 to 75%.
With `COC(=O)c1nc(-c2nccn2C)nc(O)c1O` [drawing 959], the inhibition at 20 µM lay in the range of 26 to 50%.

The same experiment, now with this note: at 20 μM, without SOS; read-out: KRas G12D mutant: % inh.
Consider `O=C(NC1CCCC1)c1nc(-c2ccccn2)nc(O)c1O` [drawing 947], for which the inhibition at 20 µM lay in the range of 51 to 75%.
The same measure, in the same setting: to `COc1c(O)nc(-c2ccccn2)nc1Oc1ccccc1` [drawing 948] belongs 26 to 50%; to `COCCc1ccc(Oc2nc(-c3ccccn3)nc(O)c2OC)cc1` [drawing 949], 51 to 75%.
On the same count and under the same terms, next, `COc1ccc(Oc2nc(-c3ccccn3)nc(O)c2OC)cc1` [drawing 950]: 76 to 100%; `Oc1nc(-c2cn3ccccc3n2)nc2c(-c3ccccn3)csc12` [drawing 951]: 26 to 50%; `COC1CCN(c2nc(-c3nccn3C)nc3sc(-c4ccccc4CO)c(-c4ccccc4)c23)C1` (stereo not drawn) [drawing 952]: 51 to 75%.
Same read-out and setting: to `COC1CCN(c2nc(-c3nccn3C)nc3sc(-c4ccc(N)nc4C)c(-c4ccccc4)c23)C1` (stereo not drawn) [drawing 953] belongs 1 to 25%; to `COC1CCN(c2nc(-c3nccn3C)nc3sc(-c4ccc(CO)cc4)c(-c4ccccc4)c23)C1` (stereo not drawn) [drawing 954], 1 to 25%.
Consider `COC1CCN(c2nc(-c3nccn3C)nc3sc(-c4ccncc4C)c(-c4ccccc4)c23)C1` (stereo not drawn) [drawing 955], for which the inhibition at 20 µM was in the range of 26 to 50%.
Regarding `O=C(NCc1ccccc1)c1nc(-c2ccccn2)nc(O)c1O` [drawing 956], the inhibition at 20 µM lay in the range of 51 to 75%.
In the case of `COC1CCN(c2nc(-c3nccn3C)nc3sc(Br)c(-c4ccccc4)c23)C1` (stereo not drawn) [drawing 957], the inhibition at 20 µM is 26 to 50%.
On the same count and under the same terms, to `COC1CCN(c2nc(-c3nccn3C)nc3sc(-c4ccnc(N(C)C)c4)c(-c4ccccc4)c23)C1` (stereo not drawn) [drawing 958] belongs 51 to 75%; to `COC(=O)c1nc(-c2nccn2C)nc(O)c1O` [drawing 959], 51 to 75%.

The next experiment has as its target Rac-1 (Homo sapiens, UniProt P63000). The experiment is described as above. As to conditions: with SOS, read-out: Rac-1 + SOS: % inh. Put shortly:
(§1)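 First, His-tagged protein is coated on nickel wells overnight at 4 °C. Next, compound (20 μM single point or serial dilution) is added for 3 h at room temperature, with or without Sos exchange factor in the last hour. Finally, 100 nM labelled GTP binds for 45 min and retained signal is measured.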
As to `O=C(NC1CCCC1)c1nc(-c2ccccn2)nc(O)c1O` [drawing 947], the inhibition at 20 µM lay in the range of 51 to 75%.
Same read-out and setting: next, `COc1c(O)nc(-c2ccccn2)nc1Oc1ccccc1` [drawing 948]: 76 to 100%; `COCCc1ccc(Oc2nc(-c3ccccn3)nc(O)c2OC)cc1` [drawing 949]: 76 to 100%; `COc1ccc(Oc2nc(-c3ccccn3)nc(O)c2OC)cc1` [drawing 950]: 51 to 75%.
Still for that read-out and setting: next, `Oc1nc(-c2cn3ccccc3n2)nc2c(-c3ccccn3)csc12` [drawing 951]: 26 to 50%; `COC1CCN(c2nc(-c3nccn3C)nc3sc(-c4ccccc4CO)c(-c4ccccc4)c23)C1` (stereo not drawn) [drawing 952]: 0%.
Regarding `COC1CCN(c2nc(-c3nccn3C)nc3sc(-c4ccc(N)nc4C)c(-c4ccccc4)c23)C1` (stereo not drawn) [drawing 953], the inhibition at 20 µM was 0%.
With `COC1CCN(c2nc(-c3nccn3C)nc3sc(-c4ccc(CO)cc4)c(-c4ccccc4)c23)C1` (stereo not drawn) [drawing 954], the inhibition at 20 µM stood at 0%.
Same read-out and setting: next, `COC1CCN(c2nc(-c3nccn3C)nc3sc(-c4ccncc4C)c(-c4ccccc4)c23)C1` (stereo not drawn) [drawing 955]: 0%; `O=C(NCc1ccccc1)c1nc(-c2ccccn2)nc(O)c1O` [drawing 956]: 51 to 75%.
Still for that read-out and setting: to `COC1CCN(c2nc(-c3nccn3C)nc3sc(Br)c(-c4ccccc4)c23)C1` (stereo not drawn) [drawing 957] belongs 1 to 25%; to `COC1CCN(c2nc(-c3nccn3C)nc3sc(-c4ccnc(N(C)C)c4)c(-c4ccccc4)c23)C1` (stereo not drawn) [drawing 958], 51 to 75%.
The same measure, in the same setting: to `COC(=O)c1nc(-c2nccn2C)nc(O)c1O` [drawing 959] belongs 51 to 75%.

The experiment is the same for the next values; noted with them: without SOS, read-out: Rac-1: % inh.
Consider `O=C(NC1CCCC1)c1nc(-c2ccccn2)nc(O)c1O` [drawing 947], for which the inhibition at 20 µM lay in the range of 51 to 75%.
The same measure, in the same setting: to `COc1c(O)nc(-c2ccccn2)nc1Oc1ccccc1` [drawing 948] belongs 76 to 100%; to `COCCc1ccc(Oc2nc(-c3ccccn3)nc(O)c2OC)cc1` [drawing 949], 51 to 75%; to `COc1ccc(Oc2nc(-c3ccccn3)nc(O)c2OC)cc1` [drawing 950], 76 to 100%.
In the case of `Oc1nc(-c2cn3ccccc3n2)nc2c(-c3ccccn3)csc12` [drawing 951], the inhibition at 20 µM was 1 to 25%.
Still for that read-out and setting: to `COC1CCN(c2nc(-c3nccn3C)nc3sc(-c4ccccc4CO)c(-c4ccccc4)c23)C1` (stereo not drawn) [drawing 952] belongs 0%; to `COC1CCN(c2nc(-c3nccn3C)nc3sc(-c4ccc(N)nc4C)c(-c4ccccc4)c23)C1` (stereo not drawn) [drawing 953], 0%.
`COC1CCN(c2nc(-c3nccn3C)nc3sc(-c4ccc(CO)cc4)c(-c4ccccc4)c23)C1` (stereo not drawn) [drawing 954]: the inhibition at 20 µM amounted to 0%.
On the same count and under the same terms, to `COC1CCN(c2nc(-c3nccn3C)nc3sc(-c4ccncc4C)c(-c4ccccc4)c23)C1` (stereo not drawn) [drawing 955] belongs 1 to 25%; to `O=C(NCc1ccccc1)c1nc(-c2ccccn2)nc(O)c1O` [drawing 956], 51 to 75%; to `COC1CCN(c2nc(-c3nccn3C)nc3sc(Br)c(-c4ccccc4)c23)C1` (stereo not drawn) [drawing 957], 1 to 25%.
On the same count and under the same terms, to `COC1CCN(c2nc(-c3nccn3C)nc3sc(-c4ccnc(N(C)C)c4)c(-c4ccccc4)c23)C1` (stereo not drawn) [drawing 958] belongs 26 to 50%; to `COC(=O)c1nc(-c2nccn2C)nc(O)c1O` [drawing 959], 76 to 100%.

Another experiment deals with Rho-A (Homo sapiens, UniProt P61586). Described as above. As to conditions: with SOS, read-out: Rho-A + SOS: % inh. Put shortly: as §1
For `O=C(NC1CCCC1)c1nc(-c2ccccn2)nc(O)c1O` [drawing 947], the inhibition at 20 µM was 51 to 75%.
On the same count and under the same terms, next, `COc1c(O)nc(-c2ccccn2)nc1Oc1ccccc1` [drawing 948]: 76 to 100%.
Same read-out and setting: to `COCCc1ccc(Oc2nc(-c3ccccn3)nc(O)c2OC)cc1` [drawing 949] belongs 76 to 100%; to `COc1ccc(Oc2nc(-c3ccccn3)nc(O)c2OC)cc1` [drawing 950], 51 to 75%; to `Oc1nc(-c2cn3ccccc3n2)nc2c(-c3ccccn3)csc12` [drawing 951], 1 to 25%.
Still for that read-out and setting: next, `COC1CCN(c2nc(-c3nccn3C)nc3sc(-c4ccccc4CO)c(-c4ccccc4)c23)C1` (stereo not drawn) [drawing 952]: 26 to 50%; `COC1CCN(c2nc(-c3nccn3C)nc3sc(-c4ccc(N)nc4C)c(-c4ccccc4)c23)C1` (stereo not drawn) [drawing 953]: 26 to 50%.
Turning to `COC1CCN(c2nc(-c3nccn3C)nc3sc(-c4ccc(CO)cc4)c(-c4ccccc4)c23)C1` (stereo not drawn) [drawing 954], the inhibition at 20 µM came to 0%.
Take `COC1CCN(c2nc(-c3nccn3C)nc3sc(-c4ccncc4C)c(-c4ccccc4)c23)C1` (stereo not drawn) [drawing 955]: the inhibition at 20 µM turned out to be 0%.
On to `O=C(NCc1ccccc1)c1nc(-c2ccccn2)nc(O)c1O` [drawing 956], for which the inhibition at 20 µM is 26 to 50%.
The same measure, in the same setting: to `COC1CCN(c2nc(-c3nccn3C)nc3sc(Br)c(-c4ccccc4)c23)C1` (stereo not drawn) [drawing 957] belongs 26 to 50%.
Still for that read-out and setting: next, `COC1CCN(c2nc(-c3nccn3C)nc3sc(-c4ccnc(N(C)C)c4)c(-c4ccccc4)c23)C1` (stereo not drawn) [drawing 958]: 26 to 50%; `COC(=O)c1nc(-c2nccn2C)nc(O)c1O` [drawing 959]: 51 to 75%.

The same experiment, now with this note: without SOS, read-out: Rho-A: % inh.
Consider `O=C(NC1CCCC1)c1nc(-c2ccccn2)nc(O)c1O` [drawing 947], for which the inhibition at 20 µM was in the range of 51 to 75%.
Same read-out and setting: to `COc1c(O)nc(-c2ccccn2)nc1Oc1ccccc1` [drawing 948] belongs 51 to 75%; to `COCCc1ccc(Oc2nc(-c3ccccn3)nc(O)c2OC)cc1` [drawing 949], 76 to 100%.
The same measure, in the same setting: to `COc1ccc(Oc2nc(-c3ccccn3)nc(O)c2OC)cc1` [drawing 950] belongs 51 to 75%; to `Oc1nc(-c2cn3ccccc3n2)nc2c(-c3ccccn3)csc12` [drawing 951], 1 to 25%.
With `COC1CCN(c2nc(-c3nccn3C)nc3sc(-c4ccccc4CO)c(-c4ccccc4)c23)C1` (stereo not drawn) [drawing 952], the inhibition at 20 µM is 0%.
On the same count and under the same terms, to `COC1CCN(c2nc(-c3nccn3C)nc3sc(-c4ccc(N)nc4C)c(-c4ccccc4)c23)C1` (stereo not drawn) [drawing 953] belongs 0%.
Still for that read-out and setting: to `COC1CCN(c2nc(-c3nccn3C)nc3sc(-c4ccc(CO)cc4)c(-c4ccccc4)c23)C1` (stereo not drawn) [drawing 954] belongs 0%.
Still for that read-out and setting: to `COC1CCN(c2nc(-c3nccn3C)nc3sc(-c4ccncc4C)c(-c4ccccc4)c23)C1` (stereo not drawn) [drawing 955] belongs 51 to 75%.
Turning to `O=C(NCc1ccccc1)c1nc(-c2ccccn2)nc(O)c1O` [drawing 956], the inhibition at 20 µM turned out to be 0%.
The same measure, in the same setting: to `COC1CCN(c2nc(-c3nccn3C)nc3sc(Br)c(-c4ccccc4)c23)C1` (stereo not drawn) [drawing 957] belongs 1 to 25%; to `COC1CCN(c2nc(-c3nccn3C)nc3sc(-c4ccnc(N(C)C)c4)c(-c4ccccc4)c23)C1` (stereo not drawn) [drawing 958], 26 to 50%.
Consider `COC(=O)c1nc(-c2nccn2C)nc(O)c1O` [drawing 959], for which the inhibition at 20 µM fell in the range of 1 to 25%.

For the origin of these results see US20250296938A1, “Compounds that Interact with the Ras Superfamily for the Treatment of Cancers, Inflammatory Diseases, Rasopathies, and Fibrotic Disease” (SHY Therapeutics, LLC, priority 2018, published 2025).
